Measured values from ChEMBL document CHEMBL1201862, “PubChem BioAssay data set” (2004).
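Five compound concentrations were applied to cells in 96-well plates for 48 hours; endpoints were derived by simple linear interpolation of the resulting dose-response curve. GI50 is the concentration that inhibits growth by half.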 Calls of active or inactive are those of the source. Rule as the data show it: active = GI50 up to about 1.1 µM and inactive = higher. Non-standard residues stand in square brackets, D forms with d. Residues, ends and D or L forms follow the SMILES beside them. ξ: configuration not given here. *: point of attachment. ξF = NC(Cc1ccccc1)C(=O)O; Cbz = O=C(OCc1ccccc1)*; Aib = CC(C)(N)C(=O)O

Legend:
Test in all cases: inhibition of tumour cell growth, NCI panel, 48 h
SN12C = system: SN12C
UO-31 = system: UO-31
SF-268 = system: SF-268
SK-MEL-2 = system: SK-MEL-2
HOP-92 = system: HOP-92
UACC-62 = system: UACC-62
HOP-62 = system: HOP-62
HL-60 = system: HL-60
UACC-257 = system: UACC-257
ACHN = system: ACHN
NCI-H460 = system: NCI-H460
U-251 = system: U-251
KM12 = system: KM12
RXF 393 = system: RXF 393
LOX IMVI = system: LOX IMVI
CAKI-1 = system: CAKI-1
A549 = system: A549
CCRF-CEM = system: CCRF-CEM
HT-29 = system: HT-29
HCT-116 = system: HCT-116

Row | SMILES | GI50 (SN12C) | GI50 (UO-31) | GI50 (SF-268) | GI50 (SK-MEL-2) | GI50 (HOP-92) | GI50 (UACC-62) | GI50 (HOP-62) | GI50 (HL-60) | GI50 (UACC-257) | GI50 (ACHN) | GI50 (NCI-H460) | GI50 (U-251) | GI50 (KM12) | GI50 (RXF 393) | GI50 (LOX IMVI) | GI50 (CAKI-1) | GI50 (A549) | GI50 (CCRF-CEM) | GI50 (HT-29) | GI50 (HCT-116)
1 | CC1(C)Cc2nnsc2C2=C1C(=O)CCS2 | > 100 µM (inactive) | > 100 µM (inactive) | > 100 µM (inactive) | > 100 µM (inactive) | 32.7 µM (inactive) | > 100 µM (inactive) | > 100 µM (inactive) | > 100 µM (inactive) | > 100 µM (inactive) | > 100 µM (inactive) | > 100 µM (inactive) | 60.4 µM (inactive) | > 100 µM (inactive) | > 100 µM (inactive) | > 100 µM (inactive) | > 100 µM (inactive) | > 100 µM (inactive) | > 100 µM (inactive) | > 100 µM (inactive) | 
2 | CCC(/C(=N/NC(=O)C[N+](C)(C)C)c1ccccc1)C1OC(=O)c2ccccc21 (centres undefined) | > 100 µM (inactive) | > 100 µM (inactive) | > 100 µM (inactive) |  | > 100 µM (inactive) | > 100 µM (inactive) | > 100 µM (inactive) | > 100 µM (inactive) | > 100 µM (inactive) | > 100 µM (inactive) | > 100 µM (inactive) | > 100 µM (inactive) | > 100 µM (inactive) | > 100 µM (inactive) | > 100 µM (inactive) | > 100 µM (inactive) | > 100 µM (inactive) | > 100 µM (inactive) | > 100 µM (inactive) | > 100 µM (inactive)
3 | CCN(CC)CCn1c(=O)c2c(C)c3oc4ccccc4oc3c(C)c2c1=O | > 100 µM (inactive) |  | > 100 µM (inactive) | > 100 µM (inactive) | > 100 µM (inactive) | > 100 µM (inactive) | > 100 µM (inactive) | > 100 µM (inactive) | > 100 µM (inactive) | > 100 µM (inactive) | > 100 µM (inactive) | > 100 µM (inactive) | > 100 µM (inactive) | > 100 µM (inactive) | > 100 µM (inactive) | > 100 µM (inactive) | > 100 µM (inactive) | > 100 µM (inactive) | > 100 µM (inactive) | > 100 µM (inactive)
4 | O=C1c2[nH]c3ccc(Br)cc3c2CCN1Cc1ccc(Cl)cc1 | 19.3 µM (inactive) | 16.4 µM (inactive) | 12.7 µM (inactive) | 19.1 µM (inactive) | 16.2 µM (inactive) | 14.1 µM (inactive) | 12.9 µM (inactive) | 17.3 µM (inactive) | 15.3 µM (inactive) | 10.8 µM (inactive) |  | 12.5 µM (inactive) | 14.1 µM (inactive) | 16.9 µM (inactive) | 12.5 µM (inactive) | 19.5 µM (inactive) | 12.7 µM (inactive) | 12.3 µM (inactive) | > 100 µM (inactive) | 10.4 µM (inactive)
5 | CN(C)C(=S)N/N=C(\C(=N/NC(=S)N(C)C)c1ccccn1)c1ccccn1 | 5.41 µM (inactive) | 6.7 µM (inactive) | 6.14 µM (inactive) | 10.7 µM (inactive) | 9.35 µM (inactive) | 6.3 µM (inactive) | 10.9 µM (inactive) |  | 10.7 µM (inactive) | 6.61 µM (inactive) | 2.56 µM (inactive) | 3.99 µM (inactive) | 4.82 µM (inactive) | 5.21 µM (inactive) | 11.8 µM (inactive) | 14.8 µM (inactive) | 6.55 µM (inactive) |  | 3.22 µM (inactive) | 5.78 µM (inactive)
6 | CCOC(=O)CNC(=O)C(Cc1ccccc1)NC(=O)C(C)(C)NC(=O)OCc1ccccc1 (centres undefined) (Cbz-[Aib]-[ξF]-Gly-OEt) |  | > 100 µM (inactive) | > 100 µM (inactive) |  | > 100 µM (inactive) | 19.6 µM (inactive) | > 100 µM (inactive) | 32.9 µM (inactive) | 33.1 µM (inactive) | > 100 µM (inactive) | > 10 µM (inactive) | > 100 µM (inactive) |  |  | 49.4 µM (inactive) | > 100 µM (inactive) | > 100 µM (inactive) | > 100 µM (inactive) | > 100 µM (inactive) | > 100 µM (inactive)
7 | COC1=CC(=O)c2c(c(O)c3oc4cc(OC)cc(C)c4c(=O)c3c2O)C1=O [BIKAVERIN] | 1.56 µM (inactive) | 1.36 µM (inactive) | 4.46 µM (inactive) | 0.865 µM (active) | 0.578 µM (active) | 1.24 µM (inactive) | 1.1 µM (active) | 0.386 µM (active) | 1.2 µM (inactive) |  | 1.34 µM (inactive) | 0.879 µM (active) | 3.25 µM (inactive) | 0.912 µM (active) | 0.535 µM (active) | 0.195 µM (active) | 1.6 µM (inactive) | 0.741 µM (active) | 19.4 µM (inactive) | 1.02 µM (active)
